Measured values as given in US6218546A, “Reagent for the detection and isolation of carbohydrates or glycan receptors” (Roche Diagnostics GmbH, priority 1995, dated 2001).

How the values were obtained:
[1] = target: T1, digoxigenin-labelled MAA lectin (Maackia amurensis, UniProt P0DKL3); test: Detection of immobilized sugar derivative with digoxigenin-labelled MAA lectin on streptavidin microtitre plate; format: binding; settings: 0.5-20 pmol/well, read at 405 nm
T1 sequence (P0DKL3 30-278 limits assumed): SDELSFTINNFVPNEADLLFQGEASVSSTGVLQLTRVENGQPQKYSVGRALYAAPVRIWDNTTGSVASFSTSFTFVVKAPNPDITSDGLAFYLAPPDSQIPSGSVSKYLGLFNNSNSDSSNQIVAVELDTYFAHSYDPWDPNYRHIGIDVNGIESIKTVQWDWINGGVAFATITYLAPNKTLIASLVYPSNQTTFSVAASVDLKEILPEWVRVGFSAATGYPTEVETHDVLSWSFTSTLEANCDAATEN
Experimental: Derivatized N-acetyl-neuraminosyl-2,3-D-lactose in TBS is incubated for 4 h at room temperature on a microtitre plate coated with streptavidin as a model substance to test the standard conditions. After immobilization of the sugar derivative (0.5-20 pmol/well in the microtitre plate; dissolved in TBS) the wells are washed five times with 0.25 ml TBS. In order to bind the digoxigenin-labelled MAA lectin (specific for N-acetyl-neuraminosyl-α(2-3)Gal residues) 1-10 μg of the lectin is dissolved in 1 ml TBSM (TBSM=TBS containing 1 mM MgCl2, 1 mM MnCl2 and 1 mM CaCl2) containing 0.5% blocking reagent (Boehringer Mannheim) and subsequently 0.2 ml of the lectin solution/well is incubated for 1 hour at room temperature while shaking gently. After the lectin has bound the wells are washed five times with 0.25 ml buffer (TBST=TBS containing 0.1% Tween-20®). […] The colour development is read at 405 nm and RT after an incubation period of ca. 20 to 30 min. […]
For the detection of N-acetyl-neuraminosyl-2,3-D-lactose the wells are washed five times with 0.25 ml TBS after immobilization of the sugar derivative (0.5-20 pmol/well in the microtitre plate; dissolved in TBS). […] The colour development is read at 405 nm and RT after an incubation period of ca. 20 to 30 min. […]

[2] = target: digoxigenin-labelled SNA lectin (Sambucus nigra, UniProt Q41358); format: binding; settings: saccharide added to wells containing SNA as the lectin; fetuin sugar derivatives (10 pmol)
digoxigenin-labelled SNA lectin, sequence (Q41358 309-570 limits assumed): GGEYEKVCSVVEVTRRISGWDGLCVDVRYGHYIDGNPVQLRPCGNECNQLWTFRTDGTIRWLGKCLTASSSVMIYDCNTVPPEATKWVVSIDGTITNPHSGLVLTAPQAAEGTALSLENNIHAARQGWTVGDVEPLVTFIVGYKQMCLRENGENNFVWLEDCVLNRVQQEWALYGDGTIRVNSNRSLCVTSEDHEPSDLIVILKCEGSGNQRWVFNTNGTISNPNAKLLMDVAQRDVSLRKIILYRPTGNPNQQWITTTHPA
digoxigenin-labelled SNA lectin, sequence (Q41358 29-292 partner limits assumed): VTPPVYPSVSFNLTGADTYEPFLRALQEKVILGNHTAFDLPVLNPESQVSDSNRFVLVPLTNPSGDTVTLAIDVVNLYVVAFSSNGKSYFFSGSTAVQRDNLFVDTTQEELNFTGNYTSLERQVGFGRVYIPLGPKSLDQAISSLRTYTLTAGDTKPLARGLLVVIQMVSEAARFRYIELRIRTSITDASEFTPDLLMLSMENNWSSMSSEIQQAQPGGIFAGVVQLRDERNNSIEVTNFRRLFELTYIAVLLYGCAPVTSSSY

[3] = target: T1, digoxigenin-labelled MAA lectin; test: Inhibition of digoxigenin-labelled MAA lectin binding to immobilized fetuin sugar derivatives on streptavidin microtitre plate; settings: fetuin sugar derivatives (10 pmol) on the MTP
[4] = Stability of marker and saccharide conjugates (HPLC analysis); format: physicochemical; settings: after one week in MeOH at 25° C.

SMILES: CC(=O)NC1C(O)CC(OC2C(O)C(CO)OC(OC3C(CO)OC(NNC(=O)NCCNC(=O)c4ccccc4N=Nc4ccc(O)cc4)C(O)C3O)C2O)(C(=O)O)OC1C(O)C(O)CO (stereo not drawn)
- detection limit ([1]; conjugate with BNAH (Example 6)): 0.5 pmol
- detection limit ([1]; conjugate with marker 4 (Example 4)): 0.5 pmol

SMILES: CC(=O)NC1C(O)CC(OC2C(O)C(CO)OC(OC3C(CO)OC(O)C(O)C3O)C2O)(C(=O)O)OC1C(O)C(O)CO [N-acetyl-neuraminosyl-2,3-D-lactose]
- inhibition of lectin signal [2]: no inhibition
- signal strength, % of the value without inhibition ([3]; 200 pmol added): about 50%
- signal strength, % of the value without inhibition ([3]; 500 pmol added): about 15%

SMILES: NNC(=O)NCCNC(=O)c1ccccc1N=Nc1ccc(O)cc1 [marker 4, 2-[2'-(4"-hydroxybenzeneazo)-benzoic acid amido]-ethylsemicarbazide]
- decomposition of the marker [4]: no decomposition
